Legend:
[1] = Selectivity index, ratio of CC50 for mouse J774 macrophage to IC50 for Leishmania donovani amastigotes infected in J774 macrophage; assay type: toxicity; details: J774 macrophages, read-out: Ratio CC50/IC50
Leishmania donovani [2] = assay: Antileishmanial activity against Leishmania donovani amastigotes infected in J774 macrophage assessed as inhibition of parasite growth incubated for 48 hrs by luciferase assay; assay type: functional, organism-based; details: J774, 48 h
J774 [3] = assay: Cytotoxicity against mouse J774 cells at 50 uM incubated for 72 hrs by MTT assay relative to control; assay type: toxicity, cell-based; details: j774, 72 h
Leishmania donovani [4] = assay: Antileishmanial activity against Leishmania donovani promastigotes measured after 48 hrs by MTT assay; assay type: functional, organism-based
J774 [5] = assay: Cytotoxicity against mouse J774 cells at 12.5 uM incubated for 72 hrs by MTT assay relative to control; assay type: toxicity, cell-based; details: j774, 72 h
J774 [6] = assay: Cytotoxicity against mouse J774 cells at 25 uM incubated for 72 hrs by MTT assay relative to control; assay type: toxicity, cell-based; details: j774, 72 h
J774 [7] = assay: Cytotoxicity against mouse J774 macrophage incubated for 72 hrs by MTT assay; assay type: functional
Leishmania donovani [8] = assay: Antileishmanial activity against Leishmania donovani amastigotes infected in J774 macrophage assessed as inhibition of parasite growth at 25 uM incubated for 48 hrs by luciferase assay relative to control; assay type: functional; set-up: scale not given: the % may be the effect or the level left
Leishmania donovani [9] = assay: Antileishmanial activity against Leishmania donovani promastigotes at 25 uM measured after 48 hrs by MTT assay relative to control; assay type: functional

SMILES | selectivity ratio [1] | IC50 (Leishmania donovani [2]) [µM] | Activity (J774 [3]) [%] | IC50 (Leishmania donovani [4]) [µM] | Activity (J774 [5]) [%] | Activity (J774 [6]) [%] | CC50 (J774 [7]) [µM] | Activity (Leishmania donovani [8]) [%] | Activity (Leishmania donovani [9]) [%]
CCn1c(-c2ccc(OCC(=O)Nc3ccccn3)cc2)nc2ccccc2c1=O | 1.45 | 27.2 | 38.97 | 23.9 | 84.82 | 79.09 | 39.5 | – | –
Cn1c(-c2cccc(OCC(=O)Nc3cccc(C(F)(F)F)c3)c2)nc2ccccc2c1=O | – | – | 36.03 | – | 69.23 | 53.5 | – | – | –
Cn1c(-c2ccc(OCC(=O)Nc3ccc(C(C)(C)C)cc3)cc2)nc2ccccc2c1=O | – | – | 26.84 | – | 59.75 | 55.66 | – | – | –
Cn1c(-c2ccc(OCC(=O)Nc3cccc4cccnc34)cc2)nc2ccccc2c1=O | 2.32 | 18.4 | 42.14 | 16.1 | 82.65 | 76.21 | 42.7 | – | –
CCn1c(-c2ccc(OCC(=O)Nc3ccc(Cl)cc3)cc2)nc2ccccc2c1=O | – | – | 32.52 | – | 67.21 | 47.53 | – | – | –
Cn1c(-c2ccc(OCC(=O)Nc3ccccc3)cc2)nc2ccccc2c1=O | 1.91 | 22.6 | 42.62 | 17.6 | 87.94 | 78.47 | 43.2 | – | –
Cn1c(-c2ccc(OCC(=O)Nc3ccc(F)cc3)cc2)nc2ccccc2c1=O | 3.62 | 11.5 | 38.87 | 8.02 | 82.8 | 69.62 | 41.6 | – | –
COc1cc(NC(=O)COc2ccc(-c3nc4ccccc4c(=O)n3C)cc2)cc(OC)c1OC | – | – | 39.78 | – | 69.04 | 51.67 | – | – | –
CCc1ccc(NC(=O)COc2ccc(-c3nc4ccccc4c(=O)n3C)cc2)cc1 | 1.89 | 20.1 | 33.38 | 15.1 | 81.78 | 79.14 | 38.1 | – | –
COc1ccc(NC(=O)COc2ccc(-c3nc4ccccc4c(=O)n3C)cc2)cc1 | 1.5 | 26.1 | 35.93 | 14.3 | 83.71 | 78.71 | 39.2 | – | –
Cn1c(-c2ccc(OCC(=O)Nc3ccncc3)cc2)nc2ccccc2c1=O | – | – | 40.96 | – | 71.91 | 51.89 | – | – | –
CCn1c(-c2ccc(OCC(=O)Nc3cccc(C(F)(F)F)c3)cc2)nc2ccccc2c1=O | 2.15 | 20.9 | 47.72 | 19.8 | 87.75 | 77.31 | 45 | – | –
Cn1c(-c2ccc(OCC(=O)Nc3ccc4c(c3)CCC4)cc2)nc2ccccc2c1=O | 5.09 | 6.23 | 36.13 | 8.26 | 87.89 | 53.88 | 31.7 | 78.87 | 79.73
Cn1c(-c2ccc(OCC(=O)Nc3ccccn3)cc2)nc2cc(F)ccc2c1=O | 3.82 | 9.16 | 30.36 | 6.25 | 85.3 | 58.74 | 35.1 | – | –
Cc1ccc(NC(=O)COc2ccc(-c3nc4ccccc4c(=O)n3C)cc2)cc1Cl | – | – | 47.78 | – | 68.41 | 52.13 | – | – | –
Cn1c(-c2cccc(OCC(=O)Nc3ccc(Cl)cc3)c2)nc2ccccc2c1=O | 4.54 | 11.9 | 55.23 | 9.11 | 84.53 | 71.35 | 54.1 | – | –

SMILES | selectivity ratio [1] | IC50 (Leishmania donovani [2]) [µM] | Activity (J774 [3]) [%] | IC50 (Leishmania donovani [4]) [µM] | Activity (J774 [5]) [%] | Activity (J774 [6]) [%] | CC50 (J774 [7]) [µM] | Activity (Leishmania donovani [8]) [%] | Activity (Leishmania donovani [9]) [%]
CCn1c(-c2ccc(OCC(=O)Nc3ccc(C)cc3)cc2)nc2ccccc2c1=O | 4.03 | 10.1 | 37.91 | 8.43 | 85.97 | 68.99 | 40.9 | – | –
Cn1c(-c2ccc(OCC(=O)Nc3ccc(Cl)cc3)cc2)nc2ccccc2c1=O | 2.78 | 22.1 | 58.88 | 16.1 | 85.35 | 81.59 | 61.8 | – | –
Cc1ccc(NC(=O)COc2ccc(-c3nc4ccccc4c(=O)n3C)cc2)cc1C | – | – | 31.465 | – | 67.4 | 46.38 | – | – | –
Cn1c(-c2ccc(OCC(=O)Nc3ccccn3)cc2)nc2ccc(Cl)cc2c1=O | – | – | 39.88 | – | 65.58 | 59.37 | – | – | –
Cn1c(-c2ccc(OCC(=O)Nc3cccc(C(F)(F)F)c3)cc2)nc2ccccc2c1=O | 2.17 | 21.9 | 48.49 | 12.3 | 86.45 | 78.66 | 47.7 | – | –
Cn1c(-c2ccc(OCC(=O)Nc3ccc4c(c3)OCO4)cc2)nc2ccccc2c1=O | 2.25 | 21.5 | 45.89 | 17.5 | 85.01 | 78.08 | 48.5 | – | –
Cn1c(-c2cccc(OCC(=O)Nc3ccc(F)cc3)c2)nc2ccccc2c1=O | – | – | 31.32 | – | 66.92 | 56.86 | – | – | –
CCn1c(-c2ccc(OCC(=O)Nc3ccc(F)cc3)cc2)nc2ccccc2c1=O | – | – | 34.39 | – | 59.51 | 43.73 | – | – | –
Cc1ccc(NC(=O)COc2cccc(-c3nc4ccccc4c(=O)n3C)c2)cc1 | – | – | 31.44 | – | 65.55 | 41.69 | – | – | –
CCn1c(-c2ccc(OCC(=O)Nc3ccc(OC)cc3)cc2)nc2ccccc2c1=O | – | – | 43.01 | – | 67.45 | 62.11 | – | – | –
CC(C)c1ccc(NC(=O)COc2ccc(-c3nc4ccccc4c(=O)n3C)cc2)cc1 | – | – | 49.31 | – | 69.76 | 67.4 | – | – | –
Cn1c(-c2ccc(OCC(=O)Nc3ccc([N+](=O)[O-])cc3)cc2)nc2ccccc2c1=O | 2.45 | 22.2 | 55.85 | 18.8 | 84.05 | 80.58 | 54.4 | – | –
COc1ccc(NC(=O)COc2ccc(-c3nc4ccccc4c(=O)n3C)cc2)cc1OC | 3.53 | 10.5 | 37.47 | 7.86 | 83.52 | 67.45 | 37 | – | –
COc1ccc(NC(=O)COc2cccc(-c3nc4ccccc4c(=O)n3C)c2)cc1 | – | – | 29.78 | – | 64.08 | 52.92 | – | – | –
Cc1ccc(NC(=O)COc2ccc(-c3nc4ccccc4c(=O)n3C)cc2)cc1 | 2.07 | 24.5 | 49.93 | 22.1 | 85.59 | 81.98 | 50.7 | – | –

From ChEMBL document CHEMBL5620379, “Discovery, SAR and mechanistic studies of quinazolinone-based acetamide derivatives in experimental visceral leishmaniasis” (Eur J Med Chem, 2023)
